Test results taken from publication PMC12174747, “Ligand Screening and Discovery Using Cocktail Soaking and Automated Microcrystal Electron Diffraction” (Chemmedchem, 2025).
Counter-ions that a name gives are not always drawn. Like-named read-outs stand apart in the source and are kept apart here.

Experiments:
thermolysin = target: T1, thermolysin (Bacillus thermoproteolyticus, UniProt P00800); assay: MicroED crystal structure (cocktail and individual soaking) and microscale thermophoresis; assay type: binding
T1 construct: gene npr
T1 sequence (P00800 233-548): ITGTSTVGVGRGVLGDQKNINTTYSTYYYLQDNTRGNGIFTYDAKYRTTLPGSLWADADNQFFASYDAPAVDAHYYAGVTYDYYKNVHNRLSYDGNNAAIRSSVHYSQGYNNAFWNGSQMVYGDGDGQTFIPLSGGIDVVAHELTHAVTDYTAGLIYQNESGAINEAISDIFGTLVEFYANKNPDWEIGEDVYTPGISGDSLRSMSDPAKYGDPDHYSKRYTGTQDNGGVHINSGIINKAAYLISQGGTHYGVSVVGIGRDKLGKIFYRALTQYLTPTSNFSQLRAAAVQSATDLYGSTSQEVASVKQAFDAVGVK

proteinase K = target: T2, proteinase K (Parengyodontium album, UniProt P06873); assay: as above; assay type: binding
T2 construct: gene PROK
T2 sequence (P06873 106-384): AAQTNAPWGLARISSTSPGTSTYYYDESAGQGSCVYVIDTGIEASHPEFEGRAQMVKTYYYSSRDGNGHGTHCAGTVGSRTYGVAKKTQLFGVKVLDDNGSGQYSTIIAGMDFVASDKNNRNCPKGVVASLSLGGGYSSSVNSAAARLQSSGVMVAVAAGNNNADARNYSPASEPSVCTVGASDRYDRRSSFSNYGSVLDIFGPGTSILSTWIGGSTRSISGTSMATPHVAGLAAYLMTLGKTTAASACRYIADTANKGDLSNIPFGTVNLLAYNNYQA

With CC(C)C[C@H](NP(=O)(O)O[C@@H]1O[C@@H](C)[C@H](O)[C@@H](O)[C@H]1O)C(=O)N[C@@H](Cc1c[nH]c2ccccc12)C(=O)O [compound 1, phosphoramidon disodium salt] the Kd (thermolysin) was 0.345 µM.

In the case of O=C(O)CNC(=O)C(CS)Cc1ccccc1 (stereo not drawn) [compound 2, thiorphan], the Kd (thermolysin; read-out: Kd) is reported as 4 µM.

“benzenesulfonyl fluoride hydrochloride [compound 4]” gave a Kd (proteinase K) of 260 µM.
